According to US4201865A, “Novel prostaglandin analogues” (Gruppo Lepetit S.p.A., priority 1978, dated 1980):

System: acidic gastric secretion
Test: inhibition of the acidic gastric hypersecretion induced by histamine in dogs (gastric fistula and Haidenhain pouche)
Assay type: in vivo, mongrel dogs
Settings: mean of four dogs; for % inhibition of the acidic gastric secretion over the controls in the H.P.: histamine 160 μg kg^-1 h^-1, denervated Haidenhain pouche; for % inhibition of the acidic gastric secretion over the controls in the G.F.: histamine 160 μg kg^-1 h^-1, innervated gastric fistula (main stomach)
Protocol: In the actual practice, the gastric antisecretory properties were evaluated on the basis of their effectiveness in inhibiting the hyperacidity induced by hystamine in dogs. Hystamine, which is a potent stimulator of the acidic gastric secretion (see Bertaccini et al. Eur. Journ. Pharmacol., 28, 360, 1974), was administered intravenously by continuous infusion during the experiments.
A group of four mongrel dogs weighing approximately 20 Kg was used in each experiments.
The dogs were surgically operated in the stomachs according to the method described by Bertaccini et al. (see above), in order to provide each animal with an innervated gastric fistula (G.F.) or main stomach, and a denervated Haidenhain pouche (H.P.).
The main stomach and the Haidenhain pouche were each equipped with a cannula in order to allow the gastric juices to drain to the exterior by gravity. The two surgically prepared cavities allow to determine if the antisecretory effect has to be ascribed to a direct action of the tested compounds on the oxyntic cells ie., the cells of the gastric walls secreting acidity, (inhibition of the hyperacidity produced both by G.F. and H.P.) or if it is mediated by the autonomous nervous system (inhibition of the hyperacidity produced only by G.F.). After a period of four to five weeks which was allowed to the animals for recovery, the dogs were administered intravenously with histamine in the amount of 160 micrograms of hystamine per kg. of body weight per hour (160 μg-kg^-1 h^-1) in order to stimulate the acidic secretion both in the G.F. and in the H.P. The maximum secretory effect was reached after approximately 1 hour and the infusion of histamine was prolonged for approximately three further hours. During the whole period of infusion, the acidic output was collected every ten minutes and titrated by means of NaOH 0.1 to pH 7.0 on an automatic titrator (Radiometer, Copenhagen). The so-obtained values (mean of four dogs) were considered as the "control values". Food, but not water, was withheld 18 hours before each experiments. At the beginning, the dogs were administered with 160 μg kg^-1 h^-1 of histamine. After reaching the maximum secretory value ie., approximately after 1 hour, the compound to be tested was administered intravenously at predetermined dosages per kg. of body weight during one hour, while the infusion of histamine at the above dosage was carried on. During this period the acidic output both from the G.F. and H.P. was collected every ten minutes and titrated as described above.
By means of the so obtained values (mean of four dogs) and the corresponding "control values" ie., the values obtained by determining the acidic output for one hour after the maximum secretory effect due to histamine was reached, it was possible to establish, by obvious calculations, the percent inhibition of the acidic gastric secretion both from the G.F. and the H.P. of the tested compounds versus the controls.
Representative experiments have shown that dosages varying from about 50 to about 100 μg/kg hour practically block the gastric hyperacidity induced by histamine both in the G.F. and in the H.P. This can be seen from the following table, wherein the results obtained by testing the compound of example 2 having [α]D^20 =-77.7 (c=0.67% in CHCl3) and the compound of example 5 having [α]D^20 =-45 (c=0.46% in CHCl3) are reported: […]

[1] = 10 μg kg^-1 h^-1, intravenous during one hour
[2] = 25 μg kg^-1 h^-1, intravenous during one hour
[3] = 50 μg kg^-1 h^-1, intravenous during one hour
[4] = 100 μg kg^-1 h^-1, intravenous during one hour

| SMILES | % inhibition of the acidic gastric secretion over the controls in the H.P. [1] [%] | % inhibition of the acidic gastric secretion over the controls in the G.F. [1] [%] | % inhibition of the acidic gastric secretion over the controls in the H.P. [2] [%] | % inhibition of the acidic gastric secretion over the controls in the G.F. [2] [%] | % inhibition of the acidic gastric secretion over the controls in the H.P. [3] [%] | % inhibition of the acidic gastric secretion over the controls in the G.F. [3] [%] | % inhibition of the acidic gastric secretion over the controls in the H.P. [4] [%] | % inhibition of the acidic gastric secretion over the controls in the G.F. [4] [%] |
| --- | --- | --- | --- | --- | --- | --- | --- | --- |
| CCCCC(OC)C(O)/C=C/[C@H]1[C@H](O)CC(=O)[C@@H]1C/C=C\CCCC(=O)OC (single isomer, unassigned) [Example 2, 11α, 15-Dihydroxy-16-methoxy-9-oxo-prosta-5(Z),13(E)-diene-1-oic-acid methyl esters] | 25 | 25 | 50 | 50 | 95 | 95 | – | – |
| CCCCC(C)(OC)C(O)/C=C/[C@H]1[C@H](O)CC(=O)[C@@H]1C/C=C\CCCC(=O)OC (single isomer, unassigned) [Example 5, 11α,15-Dihydroxy-16-methyl-16-methoxy-9-oxo-prosta-5(Z), 13(E)-diene-1-oic acid methyl esters] | 20 | 20 | – | – | 55 | 55 | 100 | 100 |
